Test [1] deals with Coagulation factor X (Homo sapiens, UniProt P00742). The experiment in a line: Inhibition of factor 10a (unknown origin).
Test [2] deals with Coagulation factor XI (Homo sapiens, UniProt P03951). The experiment in a line: Inhibition of factor 11a (unknown origin).
For test [3], the target named is T1, Coagulation factor VII (Homo sapiens) (UniProt P08709).
T1 sequence (whole entry): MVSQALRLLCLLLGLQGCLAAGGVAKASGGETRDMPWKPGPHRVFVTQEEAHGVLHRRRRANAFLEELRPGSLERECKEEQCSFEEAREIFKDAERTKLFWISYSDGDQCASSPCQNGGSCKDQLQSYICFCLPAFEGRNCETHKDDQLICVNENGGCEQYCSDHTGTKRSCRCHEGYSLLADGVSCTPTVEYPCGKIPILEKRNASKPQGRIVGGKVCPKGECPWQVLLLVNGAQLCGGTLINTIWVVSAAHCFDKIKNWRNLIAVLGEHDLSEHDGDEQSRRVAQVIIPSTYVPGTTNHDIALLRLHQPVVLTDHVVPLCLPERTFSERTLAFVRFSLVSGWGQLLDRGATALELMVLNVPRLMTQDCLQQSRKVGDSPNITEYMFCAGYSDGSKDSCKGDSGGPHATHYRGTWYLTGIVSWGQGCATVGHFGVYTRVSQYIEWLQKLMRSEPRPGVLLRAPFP
The experiment in a line: Inhibition of factor 7a (unknown origin).

Test [4] concerns the target Prothrombin (Homo sapiens, UniProt P00734). Description: Inhibition of thrombin (unknown origin).
Test [5] addresses Coagulation factor IX (Homo sapiens, UniProt P00740). Description: Inhibition of factor 9a (unknown origin).

SMILES strings stand for the structures. Calls of active or inactive are those of the source. The rule behind the calls is not given here.

By IC50 is commonly meant the concentration at which inhibition is half-maximal. High values mean a need for much substance, low ones inhibition by little substance.

Chain of Coagulation factor X (P00742 41-179 limits assumed): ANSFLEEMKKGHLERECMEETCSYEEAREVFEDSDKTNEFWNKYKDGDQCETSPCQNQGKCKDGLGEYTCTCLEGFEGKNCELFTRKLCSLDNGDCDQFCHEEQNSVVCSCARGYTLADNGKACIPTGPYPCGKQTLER
Chain of Coagulation factor X (P00742 235-488 limits assumed): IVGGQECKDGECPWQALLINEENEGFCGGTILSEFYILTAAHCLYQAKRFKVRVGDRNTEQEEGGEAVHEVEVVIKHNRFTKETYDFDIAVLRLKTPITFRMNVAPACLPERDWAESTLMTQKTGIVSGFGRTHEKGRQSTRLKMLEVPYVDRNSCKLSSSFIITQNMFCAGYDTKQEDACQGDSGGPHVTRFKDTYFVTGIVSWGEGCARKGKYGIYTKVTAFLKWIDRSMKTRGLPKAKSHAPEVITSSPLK
Chain of Coagulation factor IX (P00740 47-191 limits assumed): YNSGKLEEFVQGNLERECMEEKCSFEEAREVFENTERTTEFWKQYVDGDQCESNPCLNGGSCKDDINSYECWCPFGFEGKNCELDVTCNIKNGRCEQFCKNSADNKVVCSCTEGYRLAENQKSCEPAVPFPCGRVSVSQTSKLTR
Chain of Coagulation factor IX (P00740 227-461 limits assumed): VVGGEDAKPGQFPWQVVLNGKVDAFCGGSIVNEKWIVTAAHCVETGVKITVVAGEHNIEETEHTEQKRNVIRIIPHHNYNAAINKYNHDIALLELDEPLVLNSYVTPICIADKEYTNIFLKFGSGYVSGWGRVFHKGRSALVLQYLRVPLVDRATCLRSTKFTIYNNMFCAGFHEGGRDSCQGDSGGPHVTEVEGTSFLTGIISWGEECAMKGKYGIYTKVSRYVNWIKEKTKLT
Chain of Coagulation factor XI (P03951 19-387 limits assumed): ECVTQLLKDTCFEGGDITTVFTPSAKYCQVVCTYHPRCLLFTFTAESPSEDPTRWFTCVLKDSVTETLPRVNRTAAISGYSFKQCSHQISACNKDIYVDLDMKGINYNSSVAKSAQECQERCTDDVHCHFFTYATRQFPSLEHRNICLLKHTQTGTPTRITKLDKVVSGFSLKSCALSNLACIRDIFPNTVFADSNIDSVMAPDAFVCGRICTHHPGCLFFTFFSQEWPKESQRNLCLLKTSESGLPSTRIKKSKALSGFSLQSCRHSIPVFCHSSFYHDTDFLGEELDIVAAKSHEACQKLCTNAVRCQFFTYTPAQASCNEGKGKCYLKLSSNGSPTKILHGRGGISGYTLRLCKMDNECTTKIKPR
Chain of Coagulation factor XI (P03951 388-625 limits assumed): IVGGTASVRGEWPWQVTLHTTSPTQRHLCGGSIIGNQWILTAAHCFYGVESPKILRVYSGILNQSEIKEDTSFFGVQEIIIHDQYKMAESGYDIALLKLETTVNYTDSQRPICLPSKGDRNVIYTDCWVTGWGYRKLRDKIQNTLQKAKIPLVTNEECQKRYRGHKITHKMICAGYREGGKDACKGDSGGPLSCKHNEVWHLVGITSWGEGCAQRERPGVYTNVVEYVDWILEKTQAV

Turning to `Nc1nccc2cc(CNC(=O)[C@@H]3CCCN3C(=O)[C@@H](CC3CCCCC3)NC3CCCCC3)ccc12`, the inhibition entry in test [1], in test [3] and in test [5] was “Active” each time. The IC50 amounted to 160 nM in test [2] and 1 nM in test [4].

Values taken from ChEMBL document CHEMBL4622852, “Design and synthesis of novel proline based factor XIa selective inhibitors as leads for potential new anticoagulants” (Bioorg Med Chem Lett, 2020).
